Experimental data published in patent US5408036A, “Isolated metallopolypeptide: compositions and synthetic methods” (The Scripps Research Institute, priority 1993, dated 1995).
Residues, ends and D or L forms follow the SMILES beside them.

Key:
[1] = Circular dichroism (CD) to measure degree of secondary structure (alpha-helicity); format: physicochemical
Procedure: ID No's. 3 and 4. The analysis was performed as described above.
Proton nuclear magnetic resonance spectra were recorded at 300MHz on Bruker AM300 spectrometer and are reported in parts per million (ppm) downfield from Me4 Si. Ultraviolet-visible spectra were recorded on Aviv Associates 14DS and Milton Roy Spectronic 3000 Array spectrometers. Circular dichroism measurements were made on Aviv Associates 62DS spectrometer equipped with a thermostable cell holder using 10, 1, and 0.1 mm Hellma quartz cells. All reported CD data have an uncertainty of ±2-5%. All ellipticity measurements are expressed as mean residue ellipticity, [θ], having the units deg·cm^2 ·dmol-^1.

[2] = Heat denaturation assay to measure melting temperatures; format: physicochemical
Procedure: In order to assess differences in helix stability between the metal ion complexed and uncomplexed forms of peptides Seq. ID No's. 3 and 4, the conformational stability of each peptide in the presence and absence of transition metal ions was determined from heat denaturation studies according to published procedures. Pace et al., In Protein structure, p. 311., IRL Press, (1989). The analysis of the thermal denaturation curves afforded linear ΔG vs. T and van't Hoff plots. […] Complexed peptides Seq. ID No's.
Because tris-bipyridyl-metal ion coordination complexes are chiral and can form either a left-handed or a right-handed helix, two diastereomeric tri-helical structures can possibly be formed. The stereogenic environment of the ensuing parallel tri-helical topology as well as the geometrical constraints imposed by the overall C3 symmetry of the coordination complex was expected, however, to enforce a high degree of diastereoselectivity in the assembly process. The CD spectrum (in the region of 280 and 330 nm) of the peptide in the presence of Ni(II) indicated the formation of one diastereomer having a left-handed helical configuration. Such a behavior is also consistent with the expected left handed supercoil of the tri-helical metallopolypeptide. The analysis of the thermal denaturation curves for the metallopolypeptide in the presence of Ni(II) yielded linear ΔG vs T and van't Hoff plots.

[3] = Metal ion selectivity and relative affinities by CD analysis; format: binding; conditions: CD analysis; peptide SEQ ID NO:11 at pH 6.0
Description: Metal ion selectivity is an expected consequence of site specific metal-ligand interaction. The extent of helical induction, to a first approximation, depends on the affinity of metal ion toward the ligands employed, and on the compatibility of metal ion geometry and coordination sphere with the alpha-helical conformation. Thus, although numerous metal ions can induce and stabilize alpha-helix formation, the metal ion having the greatest relative affinity for the ligands employed is preferred and can readily be determined. […]
Peptides, prepared as in Example 1, and admixed with various metal salt solutions as described in Example 2B, were subjected to CD analysis to characterize metal ion selectivity with respect to the position of the metal binding site in the alpha-helical sequence.

[4] = CD titration: dependence of [θ]222 on free metal ion concentration, CuCl2; format: binding; conditions: CuCl2, pH 5.3; peptide 6.1×10^-5 M in 5 mM sodium borate, 21° C.
Description: (§1) FIG. 4 illustrates the dependence of mean residue molar ellipticity at 222 nm ([.THETA.]222 ×10^-3) of peptides SEQ ID NO's:2 AND 3 on the concentration of free metal ions when measured as described in Example 3A(2).
(§2) The peptide metal salt solution admixtures prepared as in Example 2A were subjected to CD analyses according to published procedures to measure the degree of stability induced by metal ion complexation with peptides. Greenfield et al., Biochem, 8:4108 (1969) and Johnson, Ann. Rev. Biophvs. Chem., 17:145 (1988). All CD data reported herein have an uncertainty of ±2 to 5% for a 100% helix, [θ]222 =-35,000, and are based on several CD measurements of both peptides SEQ ID NO's:2 and 3 in the presence and absence of metal ions in various TFE/H20 mixtures at -10° to 20° C.
(§3) Both Cu(II) and Zn(II) bound peptide SEQ ID NO:3 with similar affinities and increased the helical content to the same extent.

[5] = CD titration: dependence of [θ]222 on free metal ion concentration, NiCl2; format: binding; conditions: NiCl2, pH 6.3; peptide 6.1×10^-5 M in 5 mM sodium borate, 21° C.
Description: as §1, §2, §3

[6] = CD titration: dependence of [θ]222 on free metal ion concentration, CdCl2; format: binding; conditions: CdCl2, pH 7.5; peptide 6.1×10^-5 M in 5 mM sodium borate, 21° C.
Description: as §1, §2, §3

[7] = CD titration: dependence of [θ]222 on free metal ion concentration, ZnCl2; format: binding
Description: as §1, §2, §3

[8] = Absorption spectroscopy pH profile of Ru(III)-peptide complexes; format: physicochemical; conditions: from absorption data vs pH
Description: The Ru(III)-peptide SEQ ID NO:3 complex prepared as in Example 2B was subjected to absorption spectroscopy to further confirm the formation of a metallopeptide complex.
The pronounced shift in absorption maxima with increasing pH value is consistent with the behavior of the Ru(III) ions containing coordinated imidazoles and is attributed to N-H deprotonation at the "pyrrole nitrogen", Sunberg et al., J. Am. Chem. Soc., 96:381 (1974). […] The spectral similarity with the simple ruthenium(III)imidazole complexes and the characteristically facile metal-ion promoted imidazole NH ionization provide further support for the formation of the metallopeptide complex.

[9] = in the presence of Cu(II) ions (CuSO4, solution 13) at 0° C.

Row | Compound | dependence of helicity on added NaF ([1]; NaF up to 250 mM, 5 mM sodium borate) | alpha-helicity [1, 9] | θ222 [1, 9] | dependence of CD spectra on peptide concentration ([1]; presence and absence of metal ions, 0.5-70 μM) | alpha-helicity ([1]; room temperature in water) [%] | θ222 ([1]; room temperature in water) | melting temperature (Tm) [2] [°C] | metal ions bound, order of affinity [3] | Kd [4] [µM] | Kd [5] [µM] | Kd [6] [µM] | effect of Zn(II) on helical content ([7]; CD analysis, ZnCl2) | Kd ([7]; ZnCl2, pH 7.5, peptide 6.1×10^-5 M in 5 mM sodium borate, 21° C.) [µM] | pKa of the imidazole NH of the coordinated histidine [8]
1 | CC(=O)N[C@@H](C)C(=O)N[C@@H](CCC(=O)O)C(=O)N[C@@H](C)C(=O)N[C@@H](C)C(=O)N[C@@H](C)C(=O)N[C@@H](CCCCN)C(=O)N[C@@H](CCC(=O)O)C(=O)N[C@@H](C)C(=O)N[C@@H](C)C(=O)N[C@@H](C)C(=O)N[C@@H](CCCCN)C(=O)N[C@@H](Cc1c[nH]cn1)C(=O)N[C@@H](C)C(=O)N[C@@H](C)C(=O)N[C@@H](C)C(=O)N[C@@H](Cc1c[nH]cn1)C(=O)N[C@@H](C)C(N)=O [peptide SEQ ID NO:3, Ac--Ala--Glu--Ala--Ala--Ala--Lys--Glu--Ala--Ala--Ala--Lys--His--Ala--Ala--Ala--His--Ala--CONH2] (Ac-AEAAAKEAAAKHAAAHA-NH2) | independent of concentration of added NaF up to 250 mM | about 90% | -31,100 | independent of the peptide concentration | 45 | -16,600 | 11 | Ni(II), Cd(II), Cu(II) and Zn(II) in descending order of affinity | 66 | 210 | 220 | considerable helical induction | 75 | 
2 | Ru(III)-peptide SEQ ID NO:4 complex: exchange-inert macrocyclic cis-[Ru(NH3)4 (L)2 ]^3+ complex of peptide SEQ ID NO:4 through two His residues at i and i+4 (AEAAAKHAAAHEAAAKA; Ru(III) tetraammine macrocyclic complex via two His) |  |  |  |  | 50 | -17,300 | 9.5 |  |  |  |  |  |  | 7.5
